Experiment [1] relates to anti-IgM-induced expression of CD69 on CD19 positive cells (B cells) in human PBMCs. The experiment in a line: Assay C: PBMC IC50 assay (anti-IgM-induced CD69 expression). As to conditions: anti-IgM stimulation. Type of experiment: cell-based. The procedure: Btk is critical for mediating the signalling of B cell antigen receptor (BCR) after anti-IgM stimulation. Based on this principle, a functional cell-based assay was established to determine the potency of compounds at inhibiting anti-IgM-induced expression of CD69, a downstream BCR signaling event, in freshly isolated human peripheral blood mononuclear cells (PBMCs). In the assay, a 90 μl PBMC suspension containing 2.5×10^5 cells was pre-treated with 10 μl of test compound at various concentrations for an hour, and then incubated overnight (approximately 16-18 hours) with 5 μl 420 μg/ml affiniPure F(ab′)2 fragment goat anti-human IgM Fc fragment per well (Dianova, Cat. No.: 109-006-129). After the incubation, the cells were washed and immunostained with an APC-labeled mouse anti-human CD69 (BD Biosciences; clone: FN50), a PerCP-Cy5.5 labelled mouse anti-human CD19 (BD Biosciences; clone: SJ25C1) and a FITC-labelled mouse anti-human CD3 (BD Biosciences; clone: HIT3a), and fixed for flow cytometric analysis of CD69 expression on CD19 positive cells (B cells). The percentage of CD69 expressing CD19 positive cells was plotted against the concentrations of test compounds to obtain a concentration response curve, and calculate an IC50 value as a measure of the potency of test compounds in the assay.

The target in experiment [2] is full-length human BTK (Homo sapiens (Human), UniProt Q06187). As to the kind of experiment: Assay A: microfluidic off-chip mobility shift assay against BTK enzyme. Type of experiment: biochemical.
Sequence of full-length human BTK (Q06187 whole entry): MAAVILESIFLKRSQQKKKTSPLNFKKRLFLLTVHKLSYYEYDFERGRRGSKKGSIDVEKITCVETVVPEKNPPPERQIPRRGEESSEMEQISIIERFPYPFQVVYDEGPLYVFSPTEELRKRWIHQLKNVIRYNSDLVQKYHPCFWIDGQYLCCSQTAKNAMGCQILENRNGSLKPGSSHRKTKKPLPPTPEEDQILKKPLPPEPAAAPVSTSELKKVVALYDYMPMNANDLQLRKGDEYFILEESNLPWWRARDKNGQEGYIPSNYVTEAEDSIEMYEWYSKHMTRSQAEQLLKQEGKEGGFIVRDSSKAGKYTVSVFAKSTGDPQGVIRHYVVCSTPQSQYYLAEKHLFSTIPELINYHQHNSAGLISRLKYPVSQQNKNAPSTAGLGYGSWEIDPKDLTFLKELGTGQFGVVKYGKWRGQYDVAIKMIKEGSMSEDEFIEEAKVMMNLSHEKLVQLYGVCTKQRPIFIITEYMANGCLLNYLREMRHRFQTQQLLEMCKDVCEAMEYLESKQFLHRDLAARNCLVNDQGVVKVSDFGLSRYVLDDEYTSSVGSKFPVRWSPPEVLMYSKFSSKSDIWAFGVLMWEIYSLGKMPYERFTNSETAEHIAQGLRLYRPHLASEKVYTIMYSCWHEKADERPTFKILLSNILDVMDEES
Experiment [3] deals with BTK C481S (His-TEV-hsBTK(328-659)(C481S)) (Homo sapiens (Human), UniProt Q06187, C481S). As to the kind of experiment: Assay B: microfluidic off-chip mobility shift assay against BTK C481S enzyme. Type of experiment: biochemical. As to conditions: BTK C481S mutant. An outline of the steps:
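Substrate-to-phosphopeptide conversion quantified by microfluidic mobility shift with laser-induced fluorescence; IC50 and efficacy from log[inhibitor] vs. % activity.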

As a reminder, the IC50 is the concentration at which inhibition is half-maximal.

Sequence of BTK C481S (His-TEV-hsBTK(328-659)(C481S)) (Q06187 328-659 C481S): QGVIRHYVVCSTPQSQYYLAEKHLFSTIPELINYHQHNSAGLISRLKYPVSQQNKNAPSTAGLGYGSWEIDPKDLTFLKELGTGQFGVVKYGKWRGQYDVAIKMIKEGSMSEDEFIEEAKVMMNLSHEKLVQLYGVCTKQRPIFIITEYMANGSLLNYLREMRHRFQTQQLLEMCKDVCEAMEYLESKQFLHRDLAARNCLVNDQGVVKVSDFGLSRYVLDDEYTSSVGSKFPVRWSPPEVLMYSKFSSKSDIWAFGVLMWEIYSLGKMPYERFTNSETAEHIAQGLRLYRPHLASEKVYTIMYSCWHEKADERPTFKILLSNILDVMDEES

As for `COc1ccnc(-c2nc3c(-c4ccc(CNC(=O)c5noc(C(C)(C)C)n5)c(F)c4)ccnc3[nH]2)c1` [Example 75, 5-tert-Butyl-N-([2-fluoro-4-[2-(4-methoxypyridin-2-yl)-3H-imidazo[4,5-b]pyridin-7-yl]phenyl]methyl)-1,2,4-oxadiazole-3-carboxamide], the IC50 in experiment [1] was 100 to 1000 nM; in experiment [2], less than 100 nM; in experiment [3] it was less than 100 nM.

Take `Cn1cc(-c2nc3c(-c4ccc(CNC(=O)CCCC5CCCC5)c(F)c4)ccnc3[nH]2)cn1` [Example 16, 4-Cyclopentyl-N-{2-fluoro-4-[2-(1-methyl-1H-pyrazol-4-yl)-3H-imidazo[4,5-b]pyridin-7-yl]-benzyl}-butyramide]: the figures for the IC50 in experiment [1], in experiment [2] and in experiment [3] were more than 5000 nM, less than 100 nM and less than 100 nM, respectively.

Regarding `CCn1cc(-c2nc3c(-c4ccc(CNC(=O)c5cc6c(s5)CCCC6)c(F)c4)ccnc3[nH]2)cn1` [Example 130, 4,5,6,7-Tetrahydro-benzo[b]thiophene-2-carboxylic acid 4-[2-(1-ethyl-1H-pyrazol-4-yl)-3H-imidazo[4,5-b]pyridin-7-yl]-2-fluoro-benzylamide], the IC50 in experiment [1] was 100 to 1000 nM; in experiment [2] it was less than 100 nM; in experiment [3], less than 100 nM.

`CCn1cc(-c2nc3c(-c4ccc(CNC(=O)c5noc(C(C)(C)C)n5)c(F)c4)ccnc3[nH]2)cn1` [Example 131, 5-tert-Butyl-[1,2,4]oxadiazole-3-carboxylic acid 4-[2-(1-ethyl-1H-pyrazol-4-yl)-3H-imidazo[4,5-b]pyridin-7-yl]-2-fluoro-benzylamide]: the IC50 in experiment [1] and in experiment [2] was less than 100 nM throughout.

In the case of `Cc1c(NC(=O)c2ccc3c(c2)OCC3(C)C)cc(F)cc1-c1ccnc2[nH]c(-c3ccc(C(=O)N4CCOCC4)cc3)nc12` [Example 4, N-[5-Fluoro-2-methyl-3-(2-[4-[(morpholin-4-yl)carbonyl]phenyl]-3H-imidazo[4,5-b]pyridin-7-yl)phenyl]-3,3-dimethyl-2,3-dihydro-1-benzofuran-6-carboxamide], the IC50 in experiment [1] was 100 to 1000 nM; in experiment [2], less than 100 nM.

In the case of `CN1CCN(Cc2ccc(-c3nc4c(-c5ccc(CNC(=O)c6noc(C(C)(C)C)n6)c(F)c5)ccnc4[nH]3)nc2)CC1` [Example 69, 5-tert-Butyl-N-[[2-fluoro-4-(2-[5-[(4-methylpiperazin-1-yl)methyl]pyridin-2-yl]-3H-imidazo[4,5-b]pyridin-7-yl)phenyl]methyl]-1,2,4-oxadiazole-3-carboxamide], the IC50 in experiment [1] and in experiment [2] was less than 100 nM in each case.

As to `COc1cccc(-c2nc3c(-c4ccc(CNC(=O)c5ccc(C6CC6)cc5)c(F)c4)ccnc3[nH]2)c1` [Example 64, 4-Cyclopropyl-N-([2-fluoro-4-[2-(3-methoxyphenyl)-3H-imidazo[4,5-b]pyridin-7-yl]phenyl]methyl) benzamide], the IC50 is 100 to 1000 nM in experiment [1] and less than 100 nM in experiment [2].

On to `C=CC(=O)Nc1ccccc1-c1nc2nccc(-c3ccc(CNC(=O)c4nc(C(C)(C)C)no4)c(F)c3)c2[nH]1` [Example 160, 3-tert-butyl-N-[(2-fluoro-4-[2-[2-(prop-2-enamido)phenyl]-3H-imidazo[4,5-b]pyridin-7-yl]phenyl)methyl]-1,2,4-oxadiazole-5-carboxamide], for which the IC50 in experiment [1] and in experiment [2] was less than 100 nM throughout.

Consider `Cn1cc(-c2nc3c(-c4ccc(CNC(=O)c5noc(C6CC6)n5)c(F)c4)ccnc3[nH]2)cn1` [Example 59, 5-Cyclopropyl-N-([2-fluoro-4-[2-(1-methyl-1H-pyrazol-4-yl)-3H-imidazo[4,5-b]pyridin-7-yl]phenyl]methyl)-1,2,4-oxadiazole-3-carboxamide], for which the IC50 in experiment [1] was 100 to 1000 nM; in experiment [2] it was less than 100 nM.

Take `CC(C)(C)c1nc(C(=O)NCc2ccc(-c3ccnc4[nH]c(C5=CCNCC5)nc34)cc2F)no1` [Example 134, 5-tert-Butyl-[1,2,4]oxadiazole-3-carboxylic acid 2-fluoro-4-[2-(1,2,3,6-tetrahydro-pyridin-4-yl)-3H-imidazo[4,5-b]pyridin-7-yl]-benzylamide]: the IC50 was 100 to 1000 nM in experiment [1] and less than 100 nM in experiment [2].

(Values after patent US11098041B2 (Merck Patent GmbH, priority 2014, dated 2021).)
